“Also recorded” adds a separate entry of the source.
How the values were obtained:
[1] = system: CXCL10, IL-6, MCP-1 (CCL2), MIP-1α (CCL3) and IFN-γ; assay: Serum cytokine and chemokine levels in mice, with or without LPS (V-Plex immunoassay); assay type: in vivo; conditions: compound followed by LPS 16 hours later
Procedure: A compound of the invention (Example compound 12; "Ex 12"), or a control S1-L-E compound (control Example compound 7; "Ex 7"), were administered to subjects following the in vivo protocol of Example 1. 16 hours after that administration, some subjects were administered lipopolysaccharide (LPS).
In subjects that received LPS alone, serum levels of CXCL10, IL-6, MCP-1 (CCL2) and MIP-1α (CCL3) were raised 100-1000 fold above the levels in control subjects that received vehicle alone. (In both cases, IFN-γ levels were below the 10 pg/mL threshold of detection.) In subjects that received the compound of the invention, followed by LPS 16 hours later, CXCL10, IL-6, MCP-1 (CCL2) and MIP-1α (CCL3) levels were a further ten-fold higher than the levels in subjects that received LPS alone (see Figure 2). […] IFN-γ levels were only detectable in subjects that had been administered the compound of the invention, with LPS treatment after 16 hours resulting in a further elevation in IFN-γ levels to a small extent. Quantification of cytokines and chemokines was performed on individual serum samples that were stored frozen (≤ -20 °C) after collection, using the electrochemiluminescence-based immunoassay and a custom mouse 5-plex panel according to the manufacturer's instructions (V-Plex assay, Mesoscale Discovery, USA).

STING [2] = molecular target: T1, STING (Homo sapiens, UniProt Q86WV6); assay: Western Blot analysis for STING degradation in H596, H1650 and HaCat cells; assay type: cell-based; conditions: 0.22 µM, 0.67 µM, 2 µM and 6 µM, 24h, Figure 4
T1 sequence (Q86WV6 whole entry): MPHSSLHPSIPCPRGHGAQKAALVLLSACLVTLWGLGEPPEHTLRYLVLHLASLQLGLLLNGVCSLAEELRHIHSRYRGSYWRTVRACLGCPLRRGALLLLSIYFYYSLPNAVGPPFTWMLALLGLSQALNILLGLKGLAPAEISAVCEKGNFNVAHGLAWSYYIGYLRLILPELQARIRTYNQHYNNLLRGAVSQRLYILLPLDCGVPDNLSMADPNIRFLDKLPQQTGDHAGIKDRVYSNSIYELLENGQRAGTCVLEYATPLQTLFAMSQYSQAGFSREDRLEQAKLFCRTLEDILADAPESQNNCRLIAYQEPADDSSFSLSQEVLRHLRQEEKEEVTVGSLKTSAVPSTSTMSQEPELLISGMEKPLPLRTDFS
Procedure: To assess STING degradation in H596 cells (ATCC, HTB-178) cells were seeded at a density of 100.000 cells/well in 24-well Nunclon Delta surface treated culture plate in RPMI-1640 growth medium (supplemented with 10% FBS, 1% Pen-strep). Cells were incubated over-night at 37°C 5% CO2 to allow adhesion. Next day growth medium was renewed and a 5x concentration of test compounds (2.5% DMSO) diluted in growth medium were added to the appropriate well. Final DMSO concentration was 0.5%. Cell culture plates were returned to the incubator for additional 24h. The same protocols were used to grow H1650 and HaCat cells except that cells were seeded at a density of 150,000 cells/well and 250,000 cells/well, respectively
Final test compound concentrations were 0.22 µM, 0.67 µM, 2 µM and 6 µM.
For cell lysis, western blotting and data analysis, the following methods were applied.
For cell lysing for Western Blot analysis cell culture plates were brought to ice, supernatant was removed by aspiration and cells washed 2x in ice-cold DPBS. […] Samples were either analysed directly or stored at -80°C until analysis.
For Western Blotting, total protein concentration in each lysate was determined using PIERCE Gold BCA Assay kit according to manufactures protocol. […]

wild-type STING = molecular target: T2, wild-type STING (Homo sapiens, UniProt Q86WV6); assay: Western Blot analysis for STING degradation in healthy donor primary fibroblast cells; assay type: cell-based; conditions: healthy donor fibroblasts; 1 µM; 20 hours; Figure 7
T2 construct: compared to healthy donor primary fibroblast cells; endogenous in cells; host or cells: healthy donor primary fibroblasts
T2 sequence (Q86WV6 whole entry): as above
Procedure: (§1) For this study, STING degradation was assessed in primary fibroblast cells with constitutively active STING (comprising a N154S mutation), derived from SAVI patients, and compared to healthy donor primary fibroblast cells.
(§2) Cells were seeded at 50,000 cells/well and cultured under standard conditions for 24 hours. Media was replaced with test compound and incubated for 20 hours prior to analysis.
(§3) Cell culture medium was replaced with fresh medium containing 1 µM Example compound and incubated for 20 hours. For cell lysis and western blotting, the methods described above for HFF-1 cells were applied.

[3] = molecular target: T3, constitutively active STING (comprising a N154S mutation) (Homo sapiens, UniProt Q86WV6, N154S); assay: Western Blot analysis for STING degradation in SAVI patient primary fibroblast cells; assay type: cell-based; conditions: SAVI patient fibroblasts (N154S); 1 µM; 20 hours; Figure 7
T3 construct: primary fibroblast cells with constitutively active STING (comprising a N154S mutation), derived from SAVI patients; endogenous in cells; host or cells: SAVI patient primary fibroblasts
T3 sequence (Q86WV6 whole entry N154S): as the sequence (Q86WV6 whole entry) above, with N154S counted along it
Procedure: as §1, §2, §3

[4] = Pharmacokinetic profiling in mouse; assay type: in vivo; conditions: plasma, sc, mice, subcutaneous injection (8 mg/kg stated for Example compound 12), 8 hours after injection
Procedure: Mice were administered with 8 mg/kg Example compound 12 by subcutaneous injection. Plasma concentration of test compound was measured over the course of 8 hours.

STING [5] = molecular target: T1, STING; assay: Western Blot analysis for STING recovery following compound washout in HFF-1 cells; assay type: cell-based; set-up: To assess STING degradation and recovery in human foreskin fibroblasts HFF-1 cells; host or cells: HFF-1 human foreskin fibroblasts; conditions: 24 hours treatment, 48 hours after washout, Figure 6
Procedure: To assess STING degradation and recovery in human foreskin fibroblasts HFF-1 cells (ATCC, SCRC-1041) cells were seeded at a density of 60.000 cells/well in 24-well Nunclon Delta surface treated culture plate in DMEM growth medium (supplemented with 10% FBS, 1% Pen-strep). Cells were incubated over-night at 37°C 5% CO2 to allow adhesion. Next day growth medium was renewed and a 5x concentration of test compounds (2.5% DMSO) diluted in growth medium were added to the appropriate well. The final DMSO concentration were 0.5%. Cell culture plates were returned to the incubator for additional 24h.
Methods as described above for H596, H1650 and HaCat cells were applied for cell lysis and western blotting. Following 24 hours incubation with the test compounds, cell culture medium containing Example compound was removed, cells washed with fresh medium without Example compound, and incubated in fresh medium without Example compound for the indicated time.

| SMILES | CXCL10, IL-6, MCP-1 (CCL2) and MIP-1α (CCL3) levels relative to subjects that received LPS alone [1] | STING degradation (STING [2]) | STING degradation (wild-type STING) | STING degradation [3] | concentration at 8 h [4] | STING protein recovery after washout (STING [5]) |
| --- | --- | --- | --- | --- | --- | --- |
| CCn1nc(C)cc1C(=O)N=c1n(C)c2cc(C(N)=O)ccc2n1CCC(CCn1c(=NC(=O)c2cc(C)nn2CC)n(C)c2cc(C(N)=O)ccc21)OCC(=O)NCCOCCOCCOCCOCCC(=O)NCCOCCOCCOCCOCCNc1cccc2c1C(=O)N(C1CCC(=O)NC1=O)C2=O (stereo not shown) [Example compound 7] | only further elevated to a small extent | induction of STING degradation; also recorded: induce STING degradation in all cell lines tested at all concentrations tested | induce STING degradation | induce STING degradation | ~100 nM | fail to recover to pre-treatment levels |
| CCn1nc(C)cc1C(=O)N=c1n(C)c2cc(C(N)=O)ccc2n1CCC(CCn1c(=NC(=O)c2cc(C)nn2CC)n(C)c2cc(C(N)=O)ccc21)OCC(=O)NCCOCCOCCOCCOCCC(=O)NCCOCCOCCOCCOCC(=O)N[C@H](C(=O)N1C[C@H](O)C[C@H]1C(=O)NCc1ccc(-c2scnc2C)cc1)C(C)(C)C (stereo partly shown) [Example compound 6] | – | induction of STING degradation; also recorded: induces visible degradation in H1650 and H596 at higher concentrations | – | – | – | – |
